{
  "source": "patent US20120259389A1",
  "about": "“TREATMENT OF POSTPRANDIAL HYPERGLYCEMIA BY GASTRIC ELECTRICAL STIMULATION” (priority 2009, published 2012)",
  "origin": "cited, not measured here",
  "tested_on": "ZDF rats",
  "details": "Type II diabetic ZDF rats; 300 mg/kg/day for 28 days; reported by Uhles et al. 2009",
  "data": [
    {"smiles": "CN(C)C(=N)N=C(N)N", "note": "[Metformin]", "values": [
      {"measurement": "reduction in mean change in blood glucose AUC", "value": 21, "unit": "%"}
    ]}
  ]
}
